Data taken from ChEMBL document CHEMBL1201862, “PubChem BioAssay data set” (2004).
Active and inactive are the calls of the source.

Columns and labels:
[1] = biological target: T1, Corticotropin-releasing factor receptor 2/Corticotropin-releasing factor-binding protein (Homo sapiens, UniProt P24387+Q13324); test: Dose Response confirmation of uHTS hits for small molecule antagonists of the CRF-binding protein and CRF-R2 receptor complex.; type: functional; settings: read-out: IC50_Mean
T1 sequence (Q13324 whole entry): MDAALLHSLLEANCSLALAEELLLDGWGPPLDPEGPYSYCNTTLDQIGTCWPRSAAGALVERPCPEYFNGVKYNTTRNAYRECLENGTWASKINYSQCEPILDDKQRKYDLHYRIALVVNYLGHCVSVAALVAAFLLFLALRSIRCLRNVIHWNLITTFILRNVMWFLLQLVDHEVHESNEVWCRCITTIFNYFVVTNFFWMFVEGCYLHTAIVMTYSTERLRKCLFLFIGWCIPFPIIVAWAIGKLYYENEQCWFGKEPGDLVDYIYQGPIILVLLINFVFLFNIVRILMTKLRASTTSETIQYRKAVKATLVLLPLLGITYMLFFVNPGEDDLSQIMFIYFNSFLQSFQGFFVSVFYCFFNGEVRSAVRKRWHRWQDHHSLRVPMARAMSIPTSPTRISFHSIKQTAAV
T1 sequence (P24387 whole entry): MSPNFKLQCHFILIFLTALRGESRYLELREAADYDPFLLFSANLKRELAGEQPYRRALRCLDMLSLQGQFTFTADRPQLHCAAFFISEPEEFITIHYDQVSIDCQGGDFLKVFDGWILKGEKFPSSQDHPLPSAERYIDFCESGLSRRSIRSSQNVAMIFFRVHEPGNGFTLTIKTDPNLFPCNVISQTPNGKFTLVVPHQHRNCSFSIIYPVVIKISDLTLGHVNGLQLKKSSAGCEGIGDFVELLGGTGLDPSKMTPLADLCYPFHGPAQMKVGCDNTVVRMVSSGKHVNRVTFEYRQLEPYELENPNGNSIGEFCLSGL

[2] = biological target: T1, Corticotropin-releasing factor receptor 2/Corticotropin-releasing factor-binding protein; test: activators of CRF receptor 2 with binding protein – uHTS hits, confirmation (AID 602473); type: functional; settings: read-out: EC50_Mean
[3] = HEp-2 cell cytotoxicity, dose response, cytotoxicity control for RSV inhibitor project, HTS (AID 2410); type: functional; settings: human respiratory syncytial virus
Protein RecA = biological target: T2, Protein RecA (Mycobacterium tuberculosis, UniProt P9WHJ3); test: Fluorescence Cell-Free Homogeneous Dose Retest to Identify Inhibitors of RecA-Intein Splicing Activity. [Related pubchem assays (depositor defined):AID2097, AID2223, AID489010, AID492950]; type: functional
T2 sequence (P9WHJ3 whole entry): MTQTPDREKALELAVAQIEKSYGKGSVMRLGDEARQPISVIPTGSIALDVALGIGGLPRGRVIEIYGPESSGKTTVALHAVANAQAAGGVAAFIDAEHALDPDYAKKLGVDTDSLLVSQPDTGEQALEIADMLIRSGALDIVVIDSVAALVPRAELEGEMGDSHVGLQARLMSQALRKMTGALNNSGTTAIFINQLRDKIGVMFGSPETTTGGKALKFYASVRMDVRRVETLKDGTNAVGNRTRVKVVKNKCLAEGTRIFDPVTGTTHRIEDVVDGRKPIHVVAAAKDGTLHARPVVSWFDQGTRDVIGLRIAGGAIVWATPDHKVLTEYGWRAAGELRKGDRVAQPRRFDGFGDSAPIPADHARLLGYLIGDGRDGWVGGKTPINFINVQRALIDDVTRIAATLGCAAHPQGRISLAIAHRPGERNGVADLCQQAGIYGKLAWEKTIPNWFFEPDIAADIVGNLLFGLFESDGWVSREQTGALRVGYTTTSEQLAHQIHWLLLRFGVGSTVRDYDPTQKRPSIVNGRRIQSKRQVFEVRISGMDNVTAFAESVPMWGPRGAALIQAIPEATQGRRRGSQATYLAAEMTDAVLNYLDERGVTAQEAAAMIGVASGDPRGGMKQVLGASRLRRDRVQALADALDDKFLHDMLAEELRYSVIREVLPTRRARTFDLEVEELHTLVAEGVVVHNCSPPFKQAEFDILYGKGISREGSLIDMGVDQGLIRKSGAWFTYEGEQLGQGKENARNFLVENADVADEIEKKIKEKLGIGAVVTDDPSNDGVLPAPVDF

[4] = biological target: T3, Replicative DNA helicase DnaB (Mycobacterium tuberculosis, UniProt P9WMR3); test: DnaB intein splicing inhibitors, dose response, biochemical, cell-free fluorescence (AID 449749); type: functional
T3 sequence (P9WMR3 whole entry): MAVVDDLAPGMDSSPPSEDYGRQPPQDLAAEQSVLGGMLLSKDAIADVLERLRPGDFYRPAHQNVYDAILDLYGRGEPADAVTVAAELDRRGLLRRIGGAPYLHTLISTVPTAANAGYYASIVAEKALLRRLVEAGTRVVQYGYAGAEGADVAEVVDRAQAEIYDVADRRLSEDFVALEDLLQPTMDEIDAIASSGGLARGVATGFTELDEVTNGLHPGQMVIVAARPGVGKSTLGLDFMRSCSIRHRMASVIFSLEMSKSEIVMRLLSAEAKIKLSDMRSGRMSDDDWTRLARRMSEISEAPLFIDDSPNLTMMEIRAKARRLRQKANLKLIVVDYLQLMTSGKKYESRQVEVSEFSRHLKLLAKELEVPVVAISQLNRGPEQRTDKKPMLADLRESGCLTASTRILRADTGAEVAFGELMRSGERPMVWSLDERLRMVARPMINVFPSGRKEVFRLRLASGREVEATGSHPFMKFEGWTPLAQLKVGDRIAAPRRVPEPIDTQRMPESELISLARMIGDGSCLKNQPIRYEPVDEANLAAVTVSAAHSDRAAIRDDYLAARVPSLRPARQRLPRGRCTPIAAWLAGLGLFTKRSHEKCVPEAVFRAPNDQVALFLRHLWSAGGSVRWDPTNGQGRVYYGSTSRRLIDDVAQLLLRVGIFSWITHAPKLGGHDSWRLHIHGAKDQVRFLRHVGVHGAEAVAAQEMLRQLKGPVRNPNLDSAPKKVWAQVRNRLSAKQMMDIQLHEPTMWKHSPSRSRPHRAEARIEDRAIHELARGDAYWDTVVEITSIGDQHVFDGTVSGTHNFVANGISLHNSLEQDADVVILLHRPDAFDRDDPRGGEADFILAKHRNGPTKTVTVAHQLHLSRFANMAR

Streptokinase A = biological target: T4, Streptokinase A (Streptococcus pyogenes serotype M1, UniProt P10520); test: S. pyogenes streptokinase expression inhibitors, potency, dose response, plasminogen activation absorbance, OD405 (AID 1914); type: functional, Streptococcus pyogenes M1 GAS;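 note: secreted streptokinase activity via plasminogen activation per viability signal from cell pellet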
T4 sequence (P10520 whole entry): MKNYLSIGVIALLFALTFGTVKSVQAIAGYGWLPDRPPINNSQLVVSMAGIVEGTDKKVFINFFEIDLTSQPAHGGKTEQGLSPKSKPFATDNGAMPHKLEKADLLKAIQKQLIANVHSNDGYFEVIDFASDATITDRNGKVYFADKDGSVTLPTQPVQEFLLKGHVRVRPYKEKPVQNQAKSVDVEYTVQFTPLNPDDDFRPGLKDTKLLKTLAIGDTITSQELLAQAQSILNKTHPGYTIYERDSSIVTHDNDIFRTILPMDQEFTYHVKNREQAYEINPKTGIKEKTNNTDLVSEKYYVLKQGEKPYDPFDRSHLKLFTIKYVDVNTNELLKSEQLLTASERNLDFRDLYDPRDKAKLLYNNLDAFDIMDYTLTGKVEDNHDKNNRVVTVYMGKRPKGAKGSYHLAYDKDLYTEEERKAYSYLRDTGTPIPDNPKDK

Streptococcus = test: Group A Streptococcus viability loss, dose response, counter-screen for streptokinase expression inhibitor project, luminescence, BacTiterGlo (AID 1915); type: functional, organism-based;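 note: potency for reduction of bacterial viability or growth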
[5] = tested on: Streptococcus sp. 'group A'; test: growth inhibition of control SK(-) GAS strain, dose response, counter-screen for streptokinase expression inhibitor project, luminescence, kanamycin, BacTiterGlo, confirmation (AID 1900); type: functional, organism-based

Structure (SMILES)	IC50 [1]	EC50 [2]	further results
Cc1ccc2c(cnn2C(=O)CCC(=O)N2CCCCC2)c1	> 47.1 µM (inactive)	> 53 µM (inactive)	–
COCCN1CCC(CO)C1 (stereo unspecified)	> 47.1 µM (inactive)	> 53 µM (inactive)	–
CCCC(=O)Nc1ccc2c(c1)Cc1ccccc1-2	–	–	CC50 [3]: > 50 µM (active)
CCOc1cc2[nH]c(=O)n(Cc3ccccc3)c(=O)c2cc1OCC	> 47.1 µM (inactive)	> 53 µM (inactive)	–
CS/C(=C\[N+](=O)[O-])Nc1ccc(OC(F)(F)F)cc1	–	–	EC50 (Protein RecA): 7.21 µM (active); AC50 [4]: 14.6 µM (active)
Cc1occc1C(=O)N/N=C/C(Br)=C/c1ccccc1	–	–	CC50 [3]: 32 µM (active)
O=C1C(Cl)=C(NCC2CCCO2)C(=O)N1c1ccccc1 (stereo unspecified)	–	–	EC50 (Protein RecA): 6.58 µM (active); AC50 [4]: 18.8 µM (active)
CSc1ccccc1NC(=O)COC(=O)c1c[nH]c(=O)[nH]c1=O	–	> 53 µM (inactive)	–
CCC(=O)Nc1cccc(-c2csc(-c3ccccc3)n2)c1	–	–	CC50 [3]: 26.4 µM (active)
C/C(=N\NC1=NC(=O)C(CC(=O)Nc2ccc(C)c(Cl)c2)S1)C(C)(C)C (stereo unspecified)	–	–	CC50 [3]: 13.8 µM (active)
O=C(COc1cccc(Cl)c1)Nc1ccc(N2CCOCC2)cc1	> 47.1 µM (inactive)	> 53 µM (inactive)	–
CSc1ccccc1C(=O)N1CCN(S(=O)(=O)c2sc(C(=O)O)c(C)c2C(=O)O)CC1	> 47.1 µM (inactive)	> 53 µM (inactive)	–
Cc1c(C(c2ccc(N(C)C)cc2)c2c(C)n(C)n(-c3ccccc3)c2=O)c(=O)n(-c2ccccc2)n1C	> 47.1 µM (inactive)	> 53 µM (inactive)	–
CCn1c(SCC(=O)N2CCN(c3cccc(Cl)c3)CC2)nc2ccccc2c1=O	–	–	CC50 [3]: 47.5 µM (active)
CCN1N=C(c2cc(Cl)sc2Cl)CSC1=O	–	–	CC50 [3]: > 50 µM (active)
Cc1cc(O)c(C(C)C)cc1/N=C\c1ccccc1O	–	–	EC50 (Protein RecA): 8.89 µM (active); AC50 [4]: 4.29 µM (active)
Cc1cc(=O)n(-c2ccc(C(=O)O)cc2)[nH]1	–	–	EC50 (Protein RecA): 1.92 µM (active); AC50 [4]: 1.9 µM (active)
CC1=C(C#N)C(=O)NC(C)(C)C1	> 47.1 µM (inactive)	> 53 µM (inactive)	–
COCCn1c(N)c(C(=O)Nc2sc3c(c2C(=O)OC)CCCC3)c2nc3ccccc3nc21	–	–	CC50 [3]: > 50 µM (active); EC50 (Streptokinase A): > 150 µM (not active); EC50 (Streptococcus): 82.4 µM (active); EC50 [5]: 1.83 µM (active)

Structure (SMILES)	IC50 [1]	EC50 [2]	further results
O=C(CCN1CCCC1=O)NC1CCCc2c1cnn2-c1ccccc1F (stereo unspecified)	> 47.1 µM (inactive)	> 53 µM (inactive)	–
CC12CC3CC(C)(C1)CC(C(=O)NNC(=O)c1ccncc1)(C3)C2	> 47.1 µM (inactive)	> 53 µM (inactive)	–
CN(CCc1cnn(C)c1)C(=O)C1CCC(=O)N(CC2CCCCC2)C1 (stereo unspecified)	–	–	EC50 (Protein RecA): > 380 µM (inactive); AC50 [4]: > 380 µM (inactive)
CC(C)Cc1ccc(-c2cc(O)[nH]n2)cc1	–	–	EC50 (Protein RecA): 0.664 µM (active); AC50 [4]: 1.79 µM (active)
CCn1cc(C(=O)NCCCN(CC(C)C)CC(C)C)c(=O)c2cc(S(=O)(=O)N(C)C3CCCCC3)ccc21	–	7.06 µM (active)	–
Cc1cc2c3c(c1)C(C)CC(C)(C)N3C(=O)C2=C(C#N)C#N (stereo unspecified)	–	–	EC50 (Protein RecA): 2.22 µM (active); AC50 [4]: 23.8 µM (active)
COc1ccc(N(CC(=O)N/N=C/c2ccc3c(c2)OCO3)S(=O)(=O)c2ccc(NC(C)=O)cc2)cc1	> 47.1 µM (inactive)	> 53 µM (inactive)	–
COc1ccc(-c2csc(NC(=O)CS(=O)(=O)c3ccccc3)n2)cc1	–	–	CC50 [3]: 20.4 µM (active)
CC(=O)c1cc(F)c(N2CCN(C(=O)C(C)(C)C)CC2)cc1C	> 47.1 µM (inactive)	> 53 µM (inactive)	–
Cc1cc(C)cc(NC(=O)c2ccc(N3C(=O)C4CCCCC4C3=O)cc2)c1 (stereo unspecified)	> 47.1 µM (inactive)	> 53 µM (inactive)	–
Cc1onc(-c2ccccc2)c1CNC(=O)CN1C(=O)c2ccccc2C1=O	> 47.1 µM (inactive)	> 53 µM (inactive)	–
COc1ccccc1NS(=O)(=O)c1cc(C(=O)N2CCCC2)ccc1F	> 47.1 µM (inactive)	> 53 µM (inactive)	–
Nc1ccccc1SC1CC(=O)N(c2ccc3c(c2)OCO3)C1=O (stereo unspecified)	> 47.1 µM (inactive)	> 53 µM (inactive)	–
Cc1c(C(=O)Nc2cccc([N+](=O)[O-])c2)sc2ncn(CC(=O)N3CCOCC3)c(=O)c12	> 47.1 µM (inactive)	> 53 µM (inactive)	–
COC(=O)C(C)N(C(=O)c1cccc2ccccc12)c1c(C)cccc1C (stereo unspecified)	–	–	CC50 [3]: 19.9 µM (active)
Cc1cc(/C=C(/C#N)c2nc3ccccc3[nH]2)c(C)n1-c1cccc([N+](=O)[O-])c1	–	–	CC50 [3]: 22.6 µM (active)
O=C1C([O-])=C([n+]2ccccc2)C(=O)c2ccccc21	–	–	EC50 (Protein RecA): 3.52 µM (active); AC50 [4]: 2.79 µM (active)
Nc1nonc1-n1nnc(C(=O)N/N=C/c2ccccc2)c1CSc1ccc(Cl)cc1	–	> 53 µM (inactive)	–
CC(C)(CSc1ncccn1)NS(=O)(=O)c1ccccc1	> 47.1 µM (inactive)	> 53 µM (inactive)	–
